This passage reports IC50 results from patent US9440972B2, “Pyrido[2,3-d]pyrimidine-2,4(1 H,3H)-dione derivatives” (Hydra Biosciences, Inc., priority 2014, dated 2016).

Test [1] addresses T1, TRPC5 channel (Homo sapiens, UniProt Q9UL62).
T1 construct: expressed in transfected cells; host or cells: HEK293/TREx (Invitrogen), tetracycline-induced
T1 sequence (Q9UL62 1-973): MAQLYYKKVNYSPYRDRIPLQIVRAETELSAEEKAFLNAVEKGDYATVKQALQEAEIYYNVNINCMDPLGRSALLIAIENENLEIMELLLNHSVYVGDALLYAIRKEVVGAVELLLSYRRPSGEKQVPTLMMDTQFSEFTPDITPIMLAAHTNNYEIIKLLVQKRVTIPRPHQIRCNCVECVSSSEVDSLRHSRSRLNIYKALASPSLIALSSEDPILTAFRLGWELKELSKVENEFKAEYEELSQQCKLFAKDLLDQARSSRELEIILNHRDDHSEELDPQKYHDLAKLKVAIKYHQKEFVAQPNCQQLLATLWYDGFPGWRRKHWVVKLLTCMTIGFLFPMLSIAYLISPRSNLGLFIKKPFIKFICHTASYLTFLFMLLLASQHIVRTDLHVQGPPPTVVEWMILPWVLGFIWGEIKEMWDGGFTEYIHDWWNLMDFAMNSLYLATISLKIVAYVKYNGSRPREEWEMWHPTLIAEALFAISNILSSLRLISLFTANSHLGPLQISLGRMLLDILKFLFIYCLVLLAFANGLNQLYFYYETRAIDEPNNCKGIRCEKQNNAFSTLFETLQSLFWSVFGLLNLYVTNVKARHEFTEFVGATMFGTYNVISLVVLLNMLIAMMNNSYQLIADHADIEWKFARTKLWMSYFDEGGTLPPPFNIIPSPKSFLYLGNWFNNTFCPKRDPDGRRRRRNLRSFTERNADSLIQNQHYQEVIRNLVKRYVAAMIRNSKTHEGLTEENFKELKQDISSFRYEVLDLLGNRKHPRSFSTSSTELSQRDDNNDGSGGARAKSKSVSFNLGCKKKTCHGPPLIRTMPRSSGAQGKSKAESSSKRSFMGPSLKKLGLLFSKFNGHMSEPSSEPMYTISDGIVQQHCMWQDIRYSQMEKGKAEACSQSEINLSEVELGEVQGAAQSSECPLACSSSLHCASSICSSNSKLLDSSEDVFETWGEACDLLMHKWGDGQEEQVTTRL
Put plainly: Patch clamp experiments (whole-cell, LaCl3-activated TRPC5 current). The test is classed as cell-based. Conditions: whole-cell patch clamp in TRPC5-expressing HEK293 TREx cells; block of inward and outward currents in continued presence of LaCl3; IC50 estimated. The text has this:
Patch clamp experiments permit the detection of currents through the TRPC5 channel in the cell line described above. In normal whole-cell patch clamp recordings, a glass electrode is brought into contact with a single cell and a high-resistance (gigaohm) seal is established with the cell membrane. The membrane is then ruptured to achieve the whole-cell configuration, permitting control of the voltage of the cell membrane and measurement of currents flowing across the membrane using the amplifier attached to the electrode and resulting in the replacement of cytoplasm with the pipette solution. A perfusion system permits control of the extracellular solution, including the addition of blockers and activators of the current. The current can be activated by including 1.4 μM free Ca^2+ in the pipette (intracellular) solution, and 80 μM LaCl3 in the extracellular solution.
TRPC5 cells were induced 20-48 hours, removed from growth plates, and replated at low density (to attain good single-cell physical separation) on glass coverslips for measurement. In some cases, cells were grown in low density overnight on glass coverslips. Patch clamp recordings were made in the whole-cell mode with a holding potential of −40 mV. Every 5 seconds, a voltage ramp was applied from −120 to +100 mV, 400 ms in duration. Currents elicited were quantified at −80 mV and +80 mV. The internal solution consisted of 140 mM cesium aspartate, 10 mM HEDTA, 2 mM CaCl2, 2.27 mM MgCl2 and 10 mM HEPES, pH 7.2, with 1,400 nM calculated free Ca^2+. The external solution consisted of 150 mM NaCl, 4.5 mM KCl, 1 mM MgCl2, 2 mM CaCl2, 10 mM HEPES, 10 mM glucose, 1 mM EGTA, pH 7.4. Upon addition of LaCl3, TRPC5 current was induced only in TRPC5-expressing cells and not in parental HEK293 TREx cells. Removal of the LaCl3 stimulus causes most of the current to go away. Potential blockers were tested for ability to block both inward and outward currents in the continued presence of LaCl3.
IC50 of a compound of Formula (I) was estimated by testing the compound at 5 μM and 500 nM. […] IC50 for a compound of Formula (I) between 500 nM and 5 μM was similarly estimated.

Test [2] deals with T1, TRPC5 channel. Put plainly: High throughput screening assay: Fluo4 cell-based fluorescence assay of intracellular Ca2+ rise. The following applies: HEK293/TREx cells inducibly expressing TRPC5, 0.027-20 μM in triplicate, NF = no IC50 curve could be fit. The text has this: The assay depended on detection of the rise in intracellular Ca2+ concentration ([Ca2+]i) following channel activation in cells inducibly expressing the TRPC5 channel. Ca2+ rise was quantified with the use of fluorescent Ca2+ indicators that were loaded into cells and thereafter indicated the [Ca2+]i Ca2+ influx followed activation of the TRPC5 channel. Compounds inhibiting the [Ca2+]i rise were considered hits for further investigation.
The commercially available HEK293/TREx line (Invitrogen) was stably transfected with a TRPC5 construct and screened by conventional calcium imaging to find clones with TRPC5 expression following stimulation with 1 μg/ml tetracycline. These cells were maintained in the growth medium recommended by the manufacturer supplemented with 100 μg/ml hygromycin to promote retention of the TRPC5 construct. After growing to near confluency, cells were plated at a density of ˜35,000 cells/well in 384 well CellBind plates (Corning) in the presence of 1 μg/ml tetracycline, and allowed to grow for 20-30 hrs. A nearly confluent monolayer resulted. Cells were then loaded with Ca2+ dye: Fura-2/AM or Fluo4/AM was added to the wells to a final concentration of 4 μM or 0.5 μM, respectively, and incubated for 80 min or 60 min, respectively, at room temperature. Supernatant was then removed from the cells by inverting plates with a sharp flick, and 25 μl Hank's Balanced Salt Solution (HBSS; 0.185 g/l D-glucose, 0.9767 g/l MgS04 (anhydrous), 0.4 g/l KCl, 0.06 g/l KH2PO4 (anhydrous), 0.35 g/l NaHCO3, 8.0 g/l NaCl, and 0.04788 g/l Na2HPO4 (anhydrous); pH 7.4) was then added to each well. Following ˜0.5 hour for recovery from loading, cells were assayed using the Hamamatsu FDSS 6000 system, which permitted illumination alternately at 340 nm and 380 nm for Fura-2 experiments, or at 485 nm for Fluo4 experiments. Frames were acquired at a rate of 0.2 Hz. During the assay, the plates were continuously vortexed, with pipette mixing of wells following addition of each reagent. For the screening assay, 26 μl of a diluted compound stock (at 50 μM) was added to each well for 2 minutes following the collection of a short (4 frame) baseline. 13 μl 62 mM high-Ca2+Ringer solution (4.17 ml of normal ringer (with 2 mM Ca2+) plus 5.83 ml of isotonic calcium ringer (105 mM Ca2+; in this ringer all sodium has been replaced with calcium)) was then added to each well, achieving a final concentration of 14 mM Ca2+ and 10 μM test compound. Data was collected for ˜3 minutes following addition of high Ca2+Ringer, where the fluorescent intensity (for Fluo4) and the F340/F380 ratio (for Fura-2) were proportional to the [Ca2+]i Negative controls consisted of HEK293/TREx TRPC5 cells exposed to high Ca2+ solution, but no compound. Positive control conditions consisted of addition of 2-APB, a promiscuous blocker of TRPC5 and other channels, to columns 23 and 24 of the plates, to a final concentration of 200 μM. These controls defined a screening window, and “hits” were defined as those compounds inhibiting the fluorescence response by at least 40%. IC50 values were determined for compounds defined as “hits.” The Fluo4 cell-based fluorescence assay was used to determine the intracellular Ca2+ concentration in the presence of varying drug concentration. Final concentrations of compounds tested were 20 μM, 6.667 μM, 2.222 μM, 0.741 μM, 0.247 μM, 0.082 μM, and 0.027 μM. Compounds were tested in triplicate at all concentrations. Standard software was used to fit IC50 curves. A value of NF was assigned when no IC50 curves could not be fit.
Additionally or alternatively, efficacy can be represented as % inhibition in the presence (of a given concentration of compound) versus the absence of compound or in comparison to a control compound. For example, efficacy can be represented as % inhibition of ion flux in the presence versus the absence of compound.

In the case of `Cn1c(=O)n(CCCO)c(=O)c2c(Cc3ccc(Cl)cc3)c(-c3cccc(OC(F)(F)F)c3)cnc21` [Compound 40, 5-(4-chlorobenzyl)-3-(3-hydroxypropyl)-1-methyl-6-(3-(trifluoromethoxy)phenyl)pyrido[2,3-d]pyrimidine-2,4(1H,3H)-dione], the IC50 on TRPC5 channel [1] was 0.0029 µM.
Turning to `Cn1c(=O)n(CCCO)c(=O)c2c(Cc3ccc(Cl)cn3)c(-c3cccc(OC(F)(F)F)c3)cnc21` [Compound 35, 5-((5-chloropyridin-2-yl)methyl)-3-(3-hydroxypropyl)-1-methyl-6-(3-(trifluoromethoxy)phenyl)pyrido[2,3-d]pyrimidine-2,4(1H,3H)-dione], the IC50 was 0.0034 µM at TRPC5 channel [1] and 0.014 µM at TRPC5 channel [2].
For `Cn1c(=O)n(CCCO)c(=O)c2c(Cc3ccc(F)cc3)c(Oc3ccc(Cl)cc3)cnc21` [Compound 30, 6-(4-chlorophenoxy)-5-(4-fluorobenzyl)-3-(3-hydroxypropyl)-1-methylpyrido[2,3-d]pyrimidine-2,4(1H,3H)-dione], in that order: less than 0.001 µM and 0.357 µM.
Take `Cc1cncc(Oc2cnc3c(c2Cc2ccc(Cl)cc2)c(=O)n(CCCO)c(=O)n3C)c1` [Compound 27, 5-(4-chlorobenzyl)-3-(3-hydroxypropyl)-1-methyl-6-(5-methylpyridin-3-yloxy)pyrido[2,3-d]pyrimidine-2,4(1H,3H)-dione]: the IC50 on TRPC5 channel [1] is 0.029 µM.
In the case of `Cn1c(=O)n(CCCO)c(=O)c2c(C(O)c3ccc(Cl)cc3)c(-c3cccc(OC(F)(F)F)c3)cnc21` (stereo not shown) [Compound 39, 5-((4-chlorophenyl)(hydroxyl)methyl)-3-(3-hydroxypropyl)-1-methyl-6-(3-(trifluoromethoxy)phenyl)pyrido[2,3-d]pyrimidine-2,4(1H,3H)-dione], on TRPC5 channel [1], the IC50 was 0.0517 µM.
Regarding `Cn1c(=O)n(CCCO)c(=O)c2c(Cc3ccccc3)c(-c3cccc(F)c3)cnc21` [Compound 34, 5-benzyl-6-(3-fluorophenyl)-3-(3-hydroxypropyl)-1-methylpyrido[2,3-d]pyrimidine-2,4(1H,3H)-dione], the values for the IC50 at TRPC5 channel [1] and at TRPC5 channel [2] were 0.0083 µM and 0.154 µM, respectively.
For `CC(C)Oc1cnc2c(c1Cc1ccc(Cl)cc1)c(=O)n(CCCO)c(=O)n2C` [Compound 36, 5-(4-chlorobenzyl)-3-(3-hydroxypropyl)-6-isopropoxy-1-methylpyrido[2,3-d]pyrimidine-2,4(1H,3H)-dione], in that order: 0.0012 µM and 0.027 µM.
For `CC(C)Oc1cnc2c(c1Cc1ccccc1)c(=O)n(CCCO)c(=O)n2C` [Compound 29, 5-benzyl-3-(3-hydroxypropyl)-6-isopropoxy-1-methylpyrido[2,3-d]pyrimidine-2,4(1H,3H)-dione], in that order: 0.0045 µM and 0.027 µM.
For `Cn1c(=O)n(CCCO)c(=O)c2c(Cc3ccc(Cl)cc3)c(Oc3cccc(OC(F)(F)F)c3)cnc21` [Compound 21, 5-(4-chlorobenzyl)-3-(3-hydroxypropyl)-1-methyl-6-(3-(trifluoromethoxy)phenoxy)pyrido[2,3-d]pyrimidine-2,4(1H,3H)-dione], in that order: less than 0.001 µM and 0.269 µM.
Take `CC(C)Oc1cnc2c(c1Cc1ccc(F)cc1)c(=O)n(CCCO)c(=O)n2C` [Compound 31, 5-(4-fluorobenzyl)-3-(3-hydroxypropyl)-6-isopropoxy-1-methylpyrido[2,3-d]pyrimidine-2,4(1H,3H)-dione]: the IC50 on TRPC5 channel [1] was 0.00147 µM; against TRPC5 channel [2] it was 0.027 µM.
For the compound `CC(C)CCc1c(-c2ccccc2C(C)C)cnc2c1c(=O)n(CCCO)c(=O)n2C` [Compound 23, 3-(3-hydroxypropyl)-5-isopentyl-6-(2-isopropylphenyl)-1-methylpyrido[2,3-d]pyrimidine-2,4(1H,3H)-dione], the IC50 at TRPC5 channel [1] is 0.0122 µM; on TRPC5 channel [2] it was 6.49 µM.

In general, IC50 refers to the point on the concentration scale where inhibition reaches its midpoint.
